Assay results reported in US4992455A, “Thiazolidin-4-one derivatives useful for treating diseases caused by platelet activating factor” (Sumitomo Pharmaceuticals Company, Limited, priority 1987, dated 1991).
Where a name gives a salt, the structure may show the parent alone.

System: fatal effect of PAF on mice
Experiment: Test for inhibition of fatal effect of PAF on mice
Type: in vivo, Male ICR mice
Conditions: 10 mg/kg iv, PAF 10 μg/kg iv, 2 hours after PAF
Experimental: Male ICR mice (perchased from Charles River Co.) aged 4 weeks were anesthetized by injecting subcutaneously 100 mg/kg of Isomital® soda (sodium amobarbital supplied by Nippon Shinyaku Co., Ltd.). After 18 minutes, the mice were injected with a test compound or a solvent through tail veins. The test compound was dissolved in a 0.2 M phosphate buffer solution to a concentration of 1 mg/ml and 10 ml/kg of this solution was injected (dose of test compound 10 mg/kg). Two minutes after this administration, the mice were injected with 10 μg/kg of PAF through tail veins. The PAF was dissolved in physiological saline containing 0.25% of bovine serum albumin to a concentration of 2 μg/ml, and the mice were injected with 5 ml/kg of this solution.
After PAF administration, the mice were observed and the survival rate of mice 2 hours later was determined.

Row | Structure (SMILES) | Survival rate
1 | C[C@H]1S[C@@H](c2cccnc2)N(C)C1=O (relative stereo) [compound 182, 3,5-dimethyl-2-(3-pyridyl)thiazolidin-4-one hydrochloride] | 100%
2 | CCCCCC[C@H]1S[C@H](c2cccnc2)N(CCN(C)C)C1=O (relative stereo) [compound 174] | 80%
3 | CCCCCCC[C@H]1S[C@H](c2cccnc2)N(CCN(C)C)C1=O (relative stereo) [compound 175] | 60%
